# Source: patent publication US20040186066A1, “Method of treatment with nelfinavir” (AGOURON PHARMACEUTICALS, INC., priority 2003, published 2004)
# Structures can show the parent of a compound that is named as a salt. Where two headings read alike, the source gives them in different places.
# Assay: Example 1: phase I crossover food-effect study, single-dose pharmacokinetics of nelfinavir 250 mg tablets (total kilocalories and fat)
# Type: in vivo, human (normal healthy volunteers)
# Conditions: for half-life / AUC / Cmax / Tmax / AUC(0-t) / AUC(0-inf): human, plasma, 1250 mg; for AUC: read-out: AUC12; for AUC(0-t): read-out: AUC(0-tlqc), least-squares mean; for AUC(0-inf): read-out: AUC(0-∞) (AUCinf), least-squares mean
# Experimental: A phase I, randomized, open-label crossover study to evaluate the impact of total kilocalories and fat content on single-dose pharmacokinetic parameters of the nelfinavir 250 mg tablet formulation in normal healthy volunteers was performed. Healthy volunteers entered the study and received the following treatment in random order at least 1 week apart: 1) 5×250 mg nelfinavir tablets, fasted 2) 5×250 mg nelfinavir tablets (breakfast meal 1, 125 Kcal/20% fat=low cal/low fat) 3) 5×250 mg nelfinavir tablets (breakfast meal 2, 500 Kcal/20% fat=medium cal/low fat) 4) 5×250 mg nelfinavir tablets (breakfast meal 3, 1000 Kcal/50% fat=high cal/high fat). Plasma concentrations of nelfinavir and its active hydroxy-t-butylamide metabolite (M8) were measured by validated high performance liquid chromatography (HPLC) methods. Pharmacokinetic parameters were determined from plasma concentration-time data using standard methods. Nelfinavir was administered as five 250-mg tablets with 240 mL of water. All subjects received a standardized snack the evening they were admitted to the in-patient facility. For the fasting evaluation, subjects were required to complete an overnight fast of at least 10 hours prior to dosing in the morning. For the fed pharmacokinetic evaluations, subjects were required to complete an overnight fast of at least 10 hours, prior to receiving the protocol-specific standardized breakfast meal (that is, Meal 1, Meal 2, or Meal 3). Subjects were given 30 minutes to complete their standardized breakfast meal. Dosing was performed in the morning, immediately following the subject's completion of the standardized breakfast meal and after the subject's pre-dose pharmacokinetic specimen had been collected. Subjects could not ingest water 1 hour prior to or 1 hour after dosing. A standardized lunch was given at least 4 hours after the morning dose and a standardized dinner was given at least 10 hours after the morning dose. For pharmacokinetic sampling, blood samples, 5 mL each, were collected into heparinized vacuum tubes (green top tubes) via an indwelling catheter or direct venipuncture. The actual time of each collection was recorded on the source document. The timing of each sample collection was as follows: predose and at 0.5, 1, 2, 3, 4, 6, 8, and 12 hours postdose on Days 1, 8,15, and 22. Pharmacokinetic parameter values were calculated using WinNonlin Pro Version 2.1. Individual nelfinavir plasma concentrations were used to predict steady-state plasma concentrations during BID administration with meals of various Kcal content. WinNonlin Pro Version 3.2 noncompartmental superposition was used for this simulation. Predicted steady-state Cmax and Cmin values were compared.
# [1] = po, nelfinavir, 1250 mg single oral dose with high calorie/high fat meal (1000 Kcal/50% fat)
# [2] = po, nelfinavir, 1250 mg single oral dose with low calorie/low fat meal (125 Kcal/20% fat)
# [3] = po, nelfinavir, 1250 mg single oral dose with moderate calorie/low fat meal (500 Kcal/20% fat)
# [4] = po, nelfinavir, 1250 mg single oral dose, fasting (reference)
# [5] = nelfinavir, 125 kcal/20% fat relative to fasting
# [6] = nelfinavir, 500 kcal/20% fat relative to fasting
# [7] = nelfinavir, 1000 kcal/50% fat relative to fasting
# [8] = nelfinavir, high calorie/high fat meal (1000 Kcal/50% fat) vs fasting
# [9] = nelfinavir, low calorie/low fat meal (125 Kcal/20% fat) vs fasting
# [10] = nelfinavir, moderate calorie/low fat meal (500 Kcal/20% fat) vs fasting
structure (smiles),measurement,setting,value
"Cc1c(O)cccc1C(=O)N[C@@H](CSc1ccccc1)[C@H](O)CN1C[C@H]2CCCC[C@H]2C[C@H]1C(=O)NC(C)(C)C (relative stereo) [nelfinavir, [3S-(3R*, 4aR*, 8aR*, 2′S*, 3′S*)]-2-[2′ hydroxy-3′-phenylthiomethyl-4′-aza-5′-oxo-5′-(2″-methyl-3″-hydroxy-phenyl)pentyl]-decahydroiso-quinoline-3-N-t-butylcarboxamide methanesulfonic acid salt]",half-life,"oral, nelfinavir, across fasting and the three meals, read-out: half-life (t½), range of mean values",3.6 to 5.6 h
same,AUC,"oral, nelfinavir, food intake 125 kcal/20% fat",20000 ng·h/mL
same,Cmax,"oral, nelfinavir, food intake 125 kcal/20% fat, read-out: Cmax (Table 5)",3160 ng/mL
same,AUC,"oral, nelfinavir, food intake 500 kcal/20% fat",25500 ng·h/mL
same,Cmax,"oral, nelfinavir, food intake 500 kcal/20% fat, read-out: Cmax (Table 5)",3670 ng/mL
same,AUC,"oral, nelfinavir, food intake 1000 kcal/50% fat",38900 ng·h/mL
same,Cmax,"oral, nelfinavir, food intake 1000 kcal/50% fat, read-out: Cmax (Table 5)",5200 ng/mL
same,Tmax,"oral, nelfinavir, high calorie meal, read-out: mean tmax longer relative to fasting subjects",~2 h
same,Tmax,"oral, nelfinavir, low calorie meal, read-out: mean tmax longer relative to fasting subjects",~1 h
same,Tmax,"oral, nelfinavir, moderate calorie meal, read-out: mean tmax longer relative to fasting subjects",~1.5 h
same,Cmax,"po, nelfinavir in plasma, 1250 mg single oral dose with high calorie/high fat meal (1000 Kcal/50% fat), read-out: Cmax, least-squares mean",5200 ng/mL
same,Cmax,"po, nelfinavir in plasma, 1250 mg single oral dose with low calorie/low fat meal (125 Kcal/20% fat), read-out: Cmax, least-squares mean",3160 ng/mL
same,Cmax,"po, nelfinavir in plasma, 1250 mg single oral dose with moderate calorie/low fat meal (500 Kcal/20% fat), read-out: Cmax, least-squares mean",3670 ng/mL
same,Cmax,"po, nelfinavir in plasma, 1250 mg single oral dose, fasting (reference), read-out: Cmax, least-squares mean",1570 ng/mL
same,AUC(0-t),[1],38900 ng·h/mL
same,AUC(0-inf),[1],55300 ng·h/mL
same,half-life,"po, nelfinavir, 1250 mg single oral dose with high calorie/high fat meal (1000 Kcal/50% fat), read-out: t1/2 (terminal half-life), least-squares mean (converted)",5.63 h
same,Tmax,"po, nelfinavir, 1250 mg single oral dose with high calorie/high fat meal (1000 Kcal/50% fat), read-out: tmax, least-squares mean",3.98 h
same,AUC(0-t),[2],20000 ng·h/mL
same,AUC(0-inf),[2],23100 ng·h/mL
same,half-life,"po, nelfinavir, 1250 mg single oral dose with low calorie/low fat meal (125 Kcal/20% fat), read-out: t1/2 (terminal half-life), least-squares mean (converted)",3.59 h
same,Tmax,"po, nelfinavir, 1250 mg single oral dose with low calorie/low fat meal (125 Kcal/20% fat), read-out: tmax, least-squares mean",3.02 h
same,AUC(0-t),[3],25500 ng·h/mL
same,AUC(0-inf),[3],33400 ng·h/mL
same,half-life,"po, nelfinavir, 1250 mg single oral dose with moderate calorie/low fat meal (500 Kcal/20% fat), read-out: t1/2 (terminal half-life), least-squares mean (converted)",4.77 h
same,Tmax,"po, nelfinavir, 1250 mg single oral dose with moderate calorie/low fat meal (500 Kcal/20% fat), read-out: tmax, least-squares mean",3.87 h
same,AUC(0-t),[4],9040 ng·h/mL
same,AUC(0-inf),[4],10600 ng·h/mL
same,half-life,"po, nelfinavir, 1250 mg single oral dose, fasting (reference), read-out: t1/2 (terminal half-life), least-squares mean (converted)",4.1 h
same,Tmax,"po, nelfinavir, 1250 mg single oral dose, fasting (reference), read-out: tmax, least-squares mean",2.18 h
same,AUC,"po, nelfinavir, 1250 mg single oral dose, fasting",9040 ng·h/mL
same,Cmax,"po, nelfinavir, 1250 mg single oral dose, fasting, read-out: Cmax (Table 5)",1570 ng/mL
same,"AUC(0-∞) (AUCinf), least-squares mean","nelfinavir, 1250 mg single oral dose with high calorie/high fat meal (1000 Kcal/50% fat)",55300 ng·h/mL
same,"AUC(0-∞) (AUCinf), least-squares mean","nelfinavir, 1250 mg single oral dose with low calorie/low fat meal (125 Kcal/20% fat)",23100 ng·h/mL
same,"AUC(0-∞) (AUCinf), least-squares mean","nelfinavir, 1250 mg single oral dose with moderate calorie/low fat meal (500 Kcal/20% fat)",33400 ng·h/mL
same,"C12 (concentration at 12 hours postdose), mean","nelfinavir, 1250 mg single oral dose, 125 Kcal/20% fat",0.65 µg/mL
same,"C12 (concentration at 12 hours postdose), mean","nelfinavir, 1250 mg single oral dose, 500 Kcal/20% fat",1.19 µg/mL
same,"C12 (concentration at 12 hours postdose), mean","nelfinavir, 1250 mg single oral dose, 1000 Kcal/50% fat",2.07 µg/mL
same,"C12 (concentration at 12 hours postdose), mean","nelfinavir, 1250 mg single oral dose, fasting",0.41 µg/mL
same,AUC12 (×fasting),[5],2.2 X
same,AUCinf (×fasting),[5],2.2 X
same,Cmax (×fasting),[5],2.0 X
same,AUC12 (×fasting),[6],2.8 X
same,AUCinf (×fasting),[6],3.1 X
same,Cmax (×fasting),[6],2.3 X
same,AUC12 (×fasting),[7],4.3 X
same,AUCinf (×fasting),[7],5.2 X
same,Cmax (×fasting),[7],3.3 X
same,C12 values compared with Cmax in fasting subjects,"nelfinavir, dose with the high calorie/high fat meal, FIG. 1",higher than Cmax values in fasting subjects
same,mean Cmax higher relative to fasting subjects,"nelfinavir, high calorie meal",3.3 fold
same,AUC(0-tlqc) ratio (100% × test/reference),[8],430%
same,AUC(0-∞) ratio (100% × test/reference),[8],520%
same,Cmax ratio (100% × test/reference),[8],331%
same,t1/2 ratio (100% × test/reference),[8],139%
same,tmax ratio (100% × test/reference),[8],183%
same,mean Cmax higher relative to fasting subjects,"nelfinavir, low calorie meal",2 fold
same,AUC(0-tlqc) ratio (100% × test/reference),[9],221%
same,AUC(0-∞) ratio (100% × test/reference),[9],218%
same,Cmax ratio (100% × test/reference),[9],201%
same,t1/2 ratio (100% × test/reference),[9],87.5%
same,tmax ratio (100% × test/reference),[9],139%
same,"bioavailability higher relative to fasting subjects, based on AUC(0-∞)","nelfinavir, meal 1 (125 Kcal/20% fat)",2.2 fold
same,"bioavailability higher relative to fasting subjects, based on AUC(0-∞)","nelfinavir, meal 2 (500 Kcal/20% fat)",3.1 fold
same,"bioavailability higher relative to fasting subjects, based on AUC(0-∞)","nelfinavir, meal 3 (1000 Kcal/50% fat)",5.2 fold
same,AUC increase over fasting state,"nelfinavir, meals containing 500-1000 kcal and 20-50% fat",3-5 fold
same,mean Cmax higher relative to fasting subjects,"nelfinavir, moderate calorie meal",2.3 fold
same,AUC(0-tlqc) ratio (100% × test/reference),[10],282%
same,AUC(0-∞) ratio (100% × test/reference),[10],314%
same,Cmax ratio (100% × test/reference),[10],234%
same,t1/2 ratio (100% × test/reference),[10],116%
same,tmax ratio (100% × test/reference),[10],178%
